What all share (assay type): functional
Assay [1] deals with Plasmodiophora brassicae. The assay can be described thus: Fungicidal activity against clubroot disease causing Plasmodiophora brassicae infested Brassica campestris under greenhouse condition assessed as disease incidence at 0.5 kg a.i/ha treated to soil measured after 40 to 50 days.
Assay [2] concerns Plasmodiophora brassicae. The assay can be described thus: Fungicidal activity against clubroot disease causing Plasmodiophora brassicae infested Brassica campestris under greenhouse condition assessed as disease incidence at 2 kg a.i/ha treated to soil measured after 40 to 50 days.
Assay [3] deals with Plasmodiophora brassicae. The assay can be described thus: Fungicidal activity against clubroot disease causing Plasmodiophora brassicae infested Brassica campestris under greenhouse condition assessed as disease incidence at 4 kg a.i/ha treated to soil measured after 40 to 50 days.

This is an account of results in ChEMBL document CHEMBL3044820, “Evaluation of Benzenesulfonanilide Derivatives for the Control of Crucifers Clubroot” (1996).

Each structure is given as a SMILES string. Some results are limits rather than exact numbers.

As for `O=S(=O)(Nc1ccc(C(F)(F)F)cc1Cl)c1cccc(C(F)(F)F)c1`, the Activity with Plasmodiophora brassicae [1], with Plasmodiophora brassicae [2] and in the assay with Plasmodiophora brassicae [3] was over 91% each time.
Turning to `O=S(=O)(Nc1cc(C(F)(F)F)ccc1Cl)c1cccc(C(F)(F)F)c1`, the values for the Activity in the assay with Plasmodiophora brassicae [1], with Plasmodiophora brassicae [2] and in the assay on Plasmodiophora brassicae [3] were 0%, over 91% and over 91%, respectively.
As for `O=S(=O)(Nc1ccc(C(F)(F)F)cc1Cl)c1ccc(Cl)cc1`, the Activity in the assay on Plasmodiophora brassicae [1] is 26%; in the assay on Plasmodiophora brassicae [2], over 91%; in the assay on Plasmodiophora brassicae [3], over 91%.
Take `Cc1ccc(S(=O)(=O)Nc2ccc([N+](=O)[O-])cc2Cl)cc1`: the Activity in the assay on Plasmodiophora brassicae [1] is recorded as 26%; with Plasmodiophora brassicae [2], over 91%; in the assay with Plasmodiophora brassicae [3], over 91%.
`Cc1ccc([N+](=O)[O-])cc1S(=O)(=O)Nc1c(Cl)cc([N+](=O)[O-])cc1Cl`: the values for the Activity in the assay on Plasmodiophora brassicae [1], with Plasmodiophora brassicae [2] and with Plasmodiophora brassicae [3] were 26%, over 91% and over 91%, respectively.
As for `O=S(=O)(Nc1ccc(C(F)(F)F)cc1)c1ccc(Cl)c(Cl)c1`, the values for the Activity in the assay with Plasmodiophora brassicae [1], in the assay with Plasmodiophora brassicae [2] and in the assay on Plasmodiophora brassicae [3] were 0%, 26% and over 91%, respectively.
The corresponding values for `Cc1cc([N+](=O)[O-])ccc1NS(=O)(=O)c1ccc(Cl)c(Cl)c1` are 0%, over 91% and over 91%.
For `O=[N+]([O-])c1ccc(NS(=O)(=O)c2ccc(Cl)c(C(F)(F)F)c2)c(Cl)c1` [FLUSULFAMIDE], the Activity with Plasmodiophora brassicae [1], with Plasmodiophora brassicae [2] and in the assay on Plasmodiophora brassicae [3] was over 91% in each case.
With `Cc1cc([N+](=O)[O-])ccc1NS(=O)(=O)c1cccc(C(F)(F)F)c1`, the Activity in the assay on Plasmodiophora brassicae [1] is given as 0%; in the assay on Plasmodiophora brassicae [2], over 91%; in the assay on Plasmodiophora brassicae [3], over 91%.
Regarding `O=[N+]([O-])c1ccc(NS(=O)(=O)c2cccc(C(F)(F)F)c2)c(F)c1`, the Activity in the assay with Plasmodiophora brassicae [1], with Plasmodiophora brassicae [2] and with Plasmodiophora brassicae [3] was over 91% each time.
As for `O=[N+]([O-])c1ccc(NS(=O)(=O)c2cc(Cl)c(Cl)cc2Cl)c(Cl)c1`, the values for the Activity in the assay with Plasmodiophora brassicae [1], in the assay with Plasmodiophora brassicae [2] and with Plasmodiophora brassicae [3] were 51%, over 91% and over 91%, respectively.
In the case of `O=[N+]([O-])c1ccc(NS(=O)(=O)c2cc(Cl)c(Cl)cc2Cl)c(F)c1`, the Activity in the assay with Plasmodiophora brassicae [1] is 71%; with Plasmodiophora brassicae [2] it was over 91%; in the assay on Plasmodiophora brassicae [3], over 91%.
As to `Cc1ccc(S(=O)(=O)Nc2ccc(C(F)(F)F)cc2)cc1`, the results for the Activity with Plasmodiophora brassicae [1], in the assay on Plasmodiophora brassicae [2] and in the assay with Plasmodiophora brassicae [3] were 0%, 26% and 26%, respectively.
